Test results reported in the Kinase Knowledgebase extract (Sharma et al. 2016).

These molecules were tested against CDK2 (human) (UniProt P24941) (assay: Enzyme Assay).

IC50, ≤ 100 nM:
CC(C)(C)c1cnc(CSc2cnc(NC(=O)CCCNCCCCCCC(=O)NO)s2)o1, CC(C)(C)c1cnc(CSc2cnc(NC(=O)c3ccc(OCCCCCC(=O)NO)cc3)s2)o1, CC(C)(C)c1cnc(CSc2cnc(NC(=O)c3ccc(OCCCCCCC(=O)NO)cc3)s2)o1, CC(C(=O)Nc1ncc(SCc2ncc(C(C)(C)C)o2)s1)c1ccc(OCCCC(=O)NO)cc1 (configuration not stated), CC(C)(C)c1cnc(CSc2cnc(NC(=O)c3ccc(OCCCC(=O)NO)cc3)s2)o1, CC(C)(C)c1cnc(CSc2cnc(NC(=O)CCCNCCC(=O)NO)s2)o1, CC(C)c1cnc(CSc2cnc(NC(=O)Cc3ccc(OCCCCCCC(=O)NO)cc3)s2)o1, CC(C)(C)c1cnc(CSc2cnc(NC(=O)c3ccc(/C=C/C(=O)NO)cc3)s2)o1, CC(C)(C)c1cnc(CSc2cnc(NC(=O)Nc3ccc(OCCCC(=O)NO)cc3)s2)o1, CC(C)(C)c1cnc(CSc2cnc(NC(=O)C3CCN(c4ncc(C(=O)NO)cn4)CC3)s2)o1, CC(C)(C)c1cnc(CSc2cnc(NC(=O)C3CCN(CCCCCC(=O)NO)CC3)s2)o1, CC(C)(C)c1cnc(CSc2cnc(NC(=O)Cc3ccc(OCCCC(=O)NO)cc3)s2)o1, CC(Sc1cnc(NC(=O)Cc2ccc(OCCCC(=O)NO)cc2)s1)c1ncc(C(C)(C)C)o1 (configuration not stated), CC(C)(C)c1cnc(CSc2cnc(NC(=O)c3ccc(OCCCCC(=O)NO)cc3)s2)o1, CC(C)(C)c1cnc(CSc2cnc(NC(=O)C3CCN(CCCC(=O)NO)CC3)s2)o1, CC(C)(C)c1cnc(CSc2cnc(NC(=O)C3CCN(CCCCC(=O)NO)CC3)s2)o1, CC(C)(C)c1cnc(CSc2cnc(NCC3CCN(c4ncc(C(=O)NO)cn4)CC3)s2)o1, CC(C)(C)c1cnc(CSc2cnc(NC(=O)Cc3ccc(OCCCCC(=O)NO)cc3)s2)o1, CC(C)(C)c1cnc(CSc2cnc(NC(=O)Oc3ccc(OCCCC(=O)NO)cc3)s2)o1, CC(C)(C)c1cnc(CSc2cnc(NC(=O)Cc3ccc(OCCC(=O)NO)cc3)s2)o1, CC(C)(C)c1cnc(CSc2cnc(NC(=O)CCCCCCC(=O)NO)s2)o1, CC(C)(C)c1cnc(CSc2cnc(NC(=O)C3CCN(CCCCCCC(=O)NO)CC3)s2)o1, CC(C)(C)c1cnc(CSc2cnc(NC(=O)c3cccc(/C=C/C(=O)NO)c3)s2)o1, CC(C)(C)c1cnc(CSc2cnc(NC(=O)CCCCC(=O)NO)s2)o1, CNC(=O)CCCCCOc1ccc(CC(=O)Nc2ncc(SCc3ncc(C(C)(C)C)o3)s2)cc1, CC(C)(C)c1cnc(CSc2cnc(NC(=O)CCCC(=O)NO)s2)o1, CC(C)(C)c1cnc(CSc2cnc(NC(=O)C(C)(C)c3ccc(OCCCC(=O)NO)cc3)s2)o1
